In patent US11000537B2, “Composition comprising novel ginsenoside” (AMOREPACIFIC CORPORATION, priority 2018, dated 2021):

Key:
3T1-L1 adipocytes = assay: glucose uptake (glucose transport) in differentiated adipocytes; type: cell-based; conditions: 10 μM, FIG. 13
Protocol: 3T1-L1 adipocytes (ATCC) were purchased, and 10% bovine calf serum (Hyclone) and 1% penicillin/streptomycin (Sigma) were added to a Dulbecco's Modified Eagle's Medium (Sigma) and cultured in a 5% CO2 culture medium. In order to differentiate preadipocyte cells into adipocytes, a culture plate was filled with cells and cultured for 48 hours. The cells were then replaced in a DMEM medium to which 10% fetal bovine serum (FBS) (Hyclone), 0.5 mM 3-isobutyl-1-methylxanthine (Sigma), 1 μM dexamethasone (Sigma), 5 μg/ml insulin (Sigma), and 1% penicillin/streptomycin were added and cultured for another 48 hours. Thereafter, the cells were further cultured for 14 days while being replaced in a medium containing 10% FBS, 5 μg/ml insulin, and 1% penicillin/streptomycin at two-day intervals to obtain fully differentiated adipocytes. […] As a positive control for measuring glucose uptake in blood, Metformin (Sigma; 10 μM), which is used as a diabetic therapeutic agent, was used, and novel ginsenoside GS #10, which is an example of the present disclosure, isolated from Ginseng seed extract and ginsenosides GS #01-GS #06, which are comparative examples of the present disclosure, were treated with 10 μM each. In addition, both insulin-dependent/independent glucose transport capacity was measured by treating insulin together, which may promote glucose uptake.

adipocyte cell 3T3-L1 = assay: fat accumulation in adipocytes (Oil-red O staining); type: cell-based; conditions: 10 μM during 48 hours of differentiation; FIG. 34
Protocol: The adipocyte cell 3T3-L1 purchased from the International Center for Biological Resources (ATCC) were placed in Dulbecco's Modified Eagle's Medium (Sigma) to which 10% fetal bovine serum (Hyclone) and 1% penicillin/streptomycin (Sigma) were added, and cultured in a 5% CO2 incubator. In order to differentiate preadipocytes into adipocytes, the cells were filled in a culture plate and cultured. After 48 hours, the cells were replaced with Dulbecco's modified eagle medium (DMEM) to which 10% of fetal bovine serum (Hyclone), 0.5 mM of 3-isobutyl-1-methylxanthine (Sigma), 1 μM of dexamethasone (Sigma), 5 μg/ml of insulin (Sigma), 1% of penicillin/streptomycin (Sigma) were added and further cultured for 48 hours. […] As a control to confirm the effect of inhibiting adipocyte differentiation, 20 μM of bisphenol A diglycidyl ether (BADGE) (Sigma), a PPARγ (Peroxisome proliferator-activated receptor gamma) antagonist, was used. Thereafter, the cells were further cultured for 10 days while being replaced with a medium containing 10% FBS and 5 μg/ml insulin and 1% penicillin/streptomycin at two-day intervals to induce adipocyte differentiation.
Differentiated adipocytes treated with each of the seven types of ginsenosides were fixed with formaldehyde solution (Sigma), stained with Oil-red O staining solution (Sigma), and then dissolved with isopropanol (Sigma), and then the amount of the stained fat was quantified by measuring at 490 nm absorbance.

pancreatic lipase = pancreatic lipase activity inhibition (Pancreatic Lipase Activity Assay Kit); type: cell-based; conditions: 10 μM, 1 hour; FIG. 22
Protocol: The hepatocyte cell line HepG2 purchased from the International Center for Biological Resources (ATCC) were placed in Dulbecco's Modified Eagle's Medium (Sigma) to which 10% fetal bovine serum (Hyclone) and 1% penicillin/streptomycin (Sigma) were added, and cultured in a 5% CO2 incubator. As a positive control for the cells, Xenical (Sigma), which are used as pancreatic lipase inhibitors and anti-obesity therapeutic agents, and seven types of ginsenosides (GS #01-GS #06, GS #10; 10 μM each) extracted from Ginseng seed were treated for 1 hour. In addition, Pancreatic Lipase Activity Assay Kit (Abcam) was used to observe the inhibition of each lipase activity.

pancreatic α-amylase = biological target: T1, pancreatic α-amylase (Sus scrofa, UniProt P00690); assay: α-amylase enzyme activity inhibition; type: biochemical; conditions: Test Example 1, FIG. 11; ginseng seed ginsenosides compared
T1 construct: purchased Sigma
T1 sequence (P00690 16-511): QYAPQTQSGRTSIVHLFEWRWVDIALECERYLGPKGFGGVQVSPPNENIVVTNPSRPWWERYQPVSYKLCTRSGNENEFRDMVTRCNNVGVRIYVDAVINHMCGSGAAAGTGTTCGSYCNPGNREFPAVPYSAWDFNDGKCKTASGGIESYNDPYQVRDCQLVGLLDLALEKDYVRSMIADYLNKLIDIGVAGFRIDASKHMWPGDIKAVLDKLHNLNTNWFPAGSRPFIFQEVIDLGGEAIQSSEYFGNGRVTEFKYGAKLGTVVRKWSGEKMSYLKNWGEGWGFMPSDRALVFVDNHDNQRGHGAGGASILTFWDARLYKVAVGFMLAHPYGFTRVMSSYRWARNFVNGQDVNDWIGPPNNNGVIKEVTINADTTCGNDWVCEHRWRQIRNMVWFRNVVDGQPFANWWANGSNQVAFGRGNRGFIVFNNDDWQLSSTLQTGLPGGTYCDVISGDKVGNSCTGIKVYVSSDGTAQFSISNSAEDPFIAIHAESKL
Protocol: (§1) As a polysaccharide degrading enzyme, pancreatic α-amylase and α-glucosidase were purchased from Sigma, and the enzyme activity of novel ginsenoside GS #10, which is an example of the present disclosure, isolated from Ginseng seed extract and ginsenosides GS #01-GS #06, which are comparative examples of the present disclosure, was measured. In order to measure α-amylase activity, enzyme solution was prepared by dissolving BSA 0.1 g, 0.01 g/L NaN3, α-amylase 0.2857 g in 50 mL of PBS (phosphate buffered saline), and 5 mM of p-nitrophenyl-α-D-maltopentoglycoside was dissolved in another PBS to make a substrate solution. 0.1 mL of the test substance was added to 0.5 mL of the enzyme solution, and then the initial absorbance was measured at 405 nm. After adding 0.5 mL of the substrate solution and reacting it for 5 minutes, the absorbance was measured again. The change in enzyme activity was measured by the difference in absorbance between the two reactions. The method for measuring α-glucosidase activity is the same as the method for measuring α-amylase activity, and differs only in α-glucosidase and substrate (p-nitrophenyl-α-D-glucopyranoside). As a positive control to observe the inhibition of enzyme activity, acarbose, which is an α-amylase inhibitor and α-glucosidase inhibitor derived from wheat seed sold by Sigma, was used.

α-glucosidase = α-glucosidase enzyme activity inhibition; type: biochemical; conditions: Test Example 1, FIG. 12; ginseng seed ginsenosides compared
Protocol: as §1

[1] = combined with insulin (+insulin)
[2] = material-only treatment (−insulin)

Row | SMILES | glucose transport promotion (3T1-L1 adipocytes; [1]) | glucose transport promotion (3T1-L1 adipocytes; [2]) | fat accumulation inhibitory effect in adipocytes (adipocyte cell 3T3-L1) | pancreatic lipase activity inhibitory effect (pancreatic lipase) | α-amylase activity inhibitory effect (pancreatic α-amylase) | α-glucosidase activity inhibitory effect (α-glucosidase)
1 | CC(C)=CCC[C@](C)(O[C@@H]1O[C@H](CO)[C@@H](O)[C@H](O)[C@H]1O)[C@H]1CC[C@]2(C)[C@@H]1[C@H](O)C[C@@H]1[C@@]3(C)CC[C@H](O)C(C)(C)[C@@H]3[C@@H](O[C@@H]3O[C@H](CO)[C@@H](O)[C@H](O)[C@H]3O)C[C@]12C [GS #01, ginsenoside Rg1] | further increase by insulin treatment | statistically significant glucose transport promotion |  |  |  | 
2 | CC(C)=CCC[C@](C)(O[C@@H]1O[C@H](CO[C@@H]2OC[C@H](O)[C@H](O)[C@H]2O)[C@@H](O)[C@H](O)[C@H]1O)[C@H]1CC[C@]2(C)[C@@H]1[C@H](O)C[C@@H]1[C@@]3(C)CC[C@H](O[C@@H]4O[C@H](CO)[C@@H](O)[C@H](O)[C@H]4O[C@@H]4O[C@H](CO)[C@@H](O)[C@H](O)[C@H]4O)C(C)(C)[C@@H]3CC[C@]12C [GS #06, ginsenoside Rb2, reference compound] |  |  | except some (GS #05, GS #06) of seven types of ginsenosides (GS #01-GS #06, GS #10; 10 μM each) extracted from Ginseng seeds, all of them was observed to reduce the amount of fats in adipocytes | except for some of the previously known ginsenosides (GS #05, GS #06), all showed a significant inhibitory effect | all except GS #06 showed significant activity inhibitory effect | no activity inhibitory effect
3 | CC(C)=CCC[C@](C)(O[C@@H]1O[C@H](CO)[C@@H](O)[C@H](O)[C@H]1O)[C@H]1CC[C@]2(C)[C@@H]1[C@H](O)C[C@@H]1[C@@]3(C)CC[C@H](O)C(C)(C)[C@@H]3[C@@H](O[C@@H]3O[C@H](CO)[C@@H](O)[C@H](O)[C@H]3O[C@@H]3O[C@@H](C)[C@H](O)[C@@H](O)[C@H]3O)C[C@]12C [GS #03, ginsenoside Re] | further increase by insulin treatment | statistically significant glucose transport promotion |  |  |  | 
4 | CN(C)C(=N)N=C(N)N [metformin, Metformin] | the glucose transport is further increased as compared with the insulin-only treatment group |  |  |  |  | 
5 | CC(C)=CCC[C@](C)(O[C@@H]1O[C@H](CO[C@@H]2O[C@H](CO)[C@@H](O)[C@H](O)[C@H]2O)[C@@H](O)[C@H](O)[C@H]1O)[C@H]1CC[C@]2(C)[C@@H]1[C@H](O)C[C@@H]1[C@@]3(C)CC[C@H](O[C@@H]4O[C@H](CO)[C@@H](O)[C@H](O)[C@H]4O[C@@H]4O[C@H](CO)[C@@H](O)[C@H](O)[C@H]4O)C(C)(C)[C@@H]3CC[C@]12C [GS #05, ginsenoside Rb1, reference compound] |  |  | except some (GS #05, GS #06) of seven types of ginsenosides (GS #01-GS #06, GS #10; 10 μM each) extracted from Ginseng seeds, all of them was observed to reduce the amount of fats in adipocytes | except for some of the previously known ginsenosides (GS #05, GS #06), all showed a significant inhibitory effect |  | no activity inhibitory effect
6 | CC(C)=CCC[C@](C)(O)[C@H]1CC[C@]2(C)[C@@H]1[C@H](O)C[C@@H]1[C@@]3(C)CC[C@H](O)C(C)(C)[C@@H]3[C@@H](O[C@@H]3O[C@H](CO)[C@@H](O)[C@H](O)[C@H]3O[C@@H]3O[C@@H](C)[C@H](O)[C@@H](O)[C@H]3O)C[C@]12C [GS #02, ginsenoside Rg2] | further increase by insulin treatment | statistically significant glucose transport promotion |  |  |  | 
